Source: publication PMC10453993 (Emerging Microbes & Infections, 2023)

Legend:
[1] = target: T1, recombinant SARS-CoV-2 3CLpro (Severe acute respiratory syndrome coronavirus 2, UniProt P0DTD1); test: biochemical
[2] = tested on: SARS-CoV-2 B.1.617.2 Delta; test: microbe, parasite or virus in culture; format: cell-based; conditions: Severe acute respiratory syndrome coronavirus 2, Calu-3, read-out: Delta EC50
[3] = tested on: SARS-CoV-2 Omicron BA.5; test: microbe, parasite or virus in culture; format: cell-based; conditions: Severe acute respiratory syndrome coronavirus 2, Calu-3, read-out: BA.5 EC50 Calu-3, nucleocapsid, Calu-3, nucleocapsid staining
[4] = tested on: SARS-CoV-2 Omicron BQ.1.1; test: microbe, parasite or virus in culture; format: cell-based; conditions: Severe acute respiratory syndrome coronavirus 2, Calu-3, read-out: BQ.1.1 EC50 Calu-3, nucleocapsid
[5] = tested on: SARS-CoV-2 Omicron XBB.1.5; test: microbe, parasite or virus in culture; format: cell-based; conditions: Severe acute respiratory syndrome coronavirus 2, Caco-2, read-out: XBB.1.5 EC50, nucleocapsid
[6] = tested on: HCoV-229E; test: microbe, parasite or virus in culture; format: cell-based; conditions: Human coronavirus 229E, Caco-2, read-out: HCoV-229E EC50
[7] = target: T1, recombinant SARS-CoV-2 3CLpro; test: cell-based

| Compound | IC50 [1] | EC50 [2] | EC50 [3] | EC50 [4] | EC50 [5] | EC50 [6] | IC50 [7] |
| --- | --- | --- | --- | --- | --- | --- | --- |
| COc1ccc(Cl)cc1CN(C(=O)Cc1cncc2ccccc12)c1ccc(N(C)C)cc1 [C5d, N-(5-chloro-2-methoxybenzyl)-N-(4-(dimethylamino)phenyl)-2-(isoquinolin-4-yl)acetamide] | 2.2 ± 0.7 µM | – | – | – | – | – | – |
| C=CCC(c1cc(Cl)cs1)N(C(=O)Cc1cncc2ccccc12)c1ccc(N(C)C)cc1 (stereo not drawn) [C5c, N-(1-(4-chlorothiophen-2-yl)but-3-en-1-yl)-N-(4-(dimethylamino)phenyl)-2-(isoquinolin-4-yl)acetamide] | 1.4 ± 0.8 µM | – | – | – | – | – | – |
| CN(C)c1ccc(N(Cc2cc(Cl)cs2)C(=O)Cc2cncc3ccccc23)cc1 [C5, N-((4-chlorothiophen-2-yl)methyl)-N-(4-(dimethylamino)phenyl)-2-(isoquinolin-4-yl)acetamide] | 0.9 ± 0.6 µM | 3.2 µM | 0.1 µM | 0.3 µM | 0.1 µM | 4.2 ± 0.7 µM | – |
| CC(C)(C)c1ccc(N(Cc2cc(Cl)cs2)C(=O)Cc2cncc3ccccc23)cc1 [C3, N-(4-(tert-butyl)phenyl)-N-((4-chlorothiophen-2-yl)methyl)-2-(isoquinolin-4-yl)acetamide] | 5 ± 0.3 µM | – | – | – | – | 9.6 ± 1 µM | 1.2 ± 1 µM |
| CN(C)c1ccc(N(Cc2cc(Cl)cs2)C(=O)Cc2cncc3c(O)cccc23)cc1 [C5b, N-((4-chlorothiophen-2-yl)methyl)-N-(4-(dimethylamino)phenyl)-2-(8-hydroxyisoquinolin-4-yl)acetamide] | 4.5 ± 1 µM | – | – | – | – | – | – |
| CN(C)c1ccc(N(Cc2cccc(Br)c2)C(=O)Cc2cncc3ccccc23)cc1 [C5e, N-(3-bromobenzyl)-N-(4-(dimethylamino)phenyl)-2-(isoquinolin-4-yl)acetamide] | 1.4 ± 0.8 µM | – | – | – | – | – | – |
| CC(C)(C)[C@H](NC(=O)C(F)(F)F)C(=O)N1C[C@H]2[C@@H]([C@H]1C(=O)N[C@H](C#N)C[C@@H]1CCNC1=O)C2(C)C [C7, Nirmatrelvir, reference compound] | – | 1.3 µM | 0.4 µM | 0.4 µM | 0.3 µM | 2 ± 1.2 µM | – |
| CSc1ccc(N(Cc2cc(Cl)cs2)C(=O)Cc2cncc3ccccc23)cc1 [C4, N-((4-chlorothiophen-2-yl)methyl)-2-(isoquinolin-4-yl)-N-(4-(methylthio)phenyl)acetamide] | 2.3 ± 0.2 µM | – | – | – | – | 7.9 ± 3.8 µM | 0.6 ± 0.3 µM |
| COc1ccc(N(Cc2cc(Cl)cs2)C(=O)Cc2cncc3ccccc23)cc1 [C2, N-((4-chlorothiophen-2-yl)methyl)-2-(isoquinolin-4-yl)-N-(4-methoxyphenyl)acetamide] | 8.5 ± 1.7 µM | – | – | – | – | 5.6 ± 1.4 µM | 0.6 ± 0.2 µM |
